Results taken from patent US20140080810A1 (Exelixis, Inc., priority 2010, published 2014).

molecular target: mTOR/GbL/Raptor (mTORC1) (Homo sapiens, UniProt P42345); assay: mTOR/GbL/Raptor (mTORC1) ELISA Assay; assay type: biochemical; settings: 4E-BP1 phosphorylation, 0.2 nM mTORC1, 10 μM ATP; last bin: >= 2,000 nM or not active under the conditions the assay was run; read-out: IC50 in this assay (mTORC1)
Description: The measurement of mTORC1 enzyme activity was performed in an ELISA assay format following the phosphorylation of 4E-BP1 protein. All experiments were performed in the 384-well format. Generally, 0.5 μL DMSO containing varying concentrations of the test Compound was mixed with 15 μL enzyme solution. Kinase reactions were initiated with the addition of 15 μL of substrates-containing solution. The assay conditions were as follows; 0.2 nM mTORC1, 10 μM ATP and 50 nM NHis-tagged 4E-BPI in 20 mM Hepes, pH 7.2, 1 mM DTT, 50 mM NaCl, 10 mM MnCl2, 0.02 mg/mL BSA, 0.01% CHAPS, 50 mM β-glycerophosphate. Following an incubation of 120 minutes at ambient temperature, 20 μL of the reaction volume was transferred to a Ni-Chelate-coated 384-well plate. The binding step of the 4E-BP1 protein proceeded for 60 minutes, followed by washing 4 times each with 50 μL of Tris-buffered saline solution (TBS). Anti-phospho-4E-BP1 rabbit-IgG (20 μL, 1:5000) in 5% BSA-TBST (0.2% Tween-20 in TBS) was added and further incubated for 60 minutes. Incubation with a secondary HRP-tagged anti-IgG was similarly performed after washing off the primary antibody (4 washes of 50 μL). Following the final wash step with TBST, 20 μL of SuperSignal ELISA Femto (Pierce Biotechnology) was added and the luminescence measured using an EnVision plate reader.

IC50 [nM] | SMILES
50 to 250 | CCNc1nc2ccc(-c3ccc4c(c3)CN(c3cc(C)nc5cc(F)ccc35)CCO4)cc2[nH]1 [Compound 641, N-ethyl-6-[4-(7-fluoro-2-methylquinolin-4-yl)-2,3,4,5-tetrahydro-1,4-benzoxazepin-7-yl]-1H-benzimidazol-2-amine]
50 to 250 | COC(=O)Nc1nc2ccc(-c3ccc4c(c3)CN(c3ncnc5c3CC(C)(C)CC5)CCO4)cc2[nH]1 [Compound 235, methyl {6-[4-(6,6-dimethyl-5,6,7,8-tetrahydroquinazolin-4-yl)-2,3,4,5-tetrahydro-1,4-benzoxazepin-7-yl]-1H-benzimidazol-2-yl}carbamate]
≥ 2000 | CC1(C)CCc2ncnc(N3CCOc4ccc(-c5cnc(NCc6ccccc6)c(NS(C)(=O)=O)c5)cc4C3)c2C1 [Compound 630, N-{5-[4-(6,6-dimethyl-5,6,7,8-tetrahydroquinazolin-4-yl)-2,3,4,5-tetrahydro-1,4-benzoxazepin-7-yl]-2-[(phethylmethyl)amino]pyridin-3-yl}methanesulfonamide]
50 to 250 | Cc1nc2ccc(-c3ccc4c(c3)CN(c3ncnc5c(Br)cccc35)CCO4)cc2[nH]1 [Compound 25, 4-(8-bromoquinazolin-4-yl)-7-(2-methyl-1H-benzimidazol-6-yl)-2,3,4,5-tetrahydro-1,4-benzoxazepine]
≤ 10 | Cc1nc2cc(-c3ccc4c(c3)CN(c3nc(N)nc(C)c3Cc3ccc(F)cc3)CCO4)ccc2[nH]1 [Compound 660, 5-[(4-fluorophenyl)methyl]-4-methyl-6-[7-(2-methyl-1H-benzimidazol-5-yl)-2,3-dihydro-1,4-benzoxazepin-4(5H)-yl]pyrimidin-2-amine]
10 to 50 | CC1(C)CCc2ncnc(N3CCOc4ccc(-c5cnc(N)c(S(=O)(=O)N6CCC(N)C6)c5)cc4C3)c2C1 (stereo not shown) [Compound 445, 3-[(3-aminopyrrolidin-1-yl)sulfonyl]-5-[4-(6,6-dimethyl-5,6,7,8-tetrahydroquinazolin-4-yl)-2,3,4,5-tetrahydro-1,4-benzoxazepin-7-yl]pyridin-2-amine]
≤ 10 | CC1(C)CCc2ncnc(N3CCOc4ccc(-c5ccc6nc[nH]c6c5)cc4C3)c2C1 [Compound 219, 7-(1H-benzimidazol-6-yl)-4-(6,6-dimethyl-5,6,7,8-tetrahydroquinazolin-4-yl)-2,3,4,5-tetrahydro-1,4-benzoxazepine]
50 to 250 | Cc1nc2ccc(-c3ccc4c(c3)CN(c3nc(C(C)(C)O)nc5c3CC(C)(C)CC5)CCO4)cc2[nH]1 [Compound 362, 2-{6,6-dimethyl-4-[7-(2-methyl-1H-benzimidazol-6-yl)-2,3-dihydro-1,4-benzoxazepin-4(5H)-yl]-5,6,7,8-tetrahydroquinazolin-2-yl}propan-2-ol]
1000 to 2000 | Cn1ccc2cc(-c3ccc4c(c3)CN(c3ccnc5ccccc35)CCO4)ccc21 [Compound 133, 7-(1-methyl-1H-indol-5-yl)-4-quinolin-4-yl-2,3,4,5-tetrahydro-1,4-benzoxazepine]
50 to 250 | CC1(C)CCc2ncnc(N3CCOc4ccc(-c5cnc6c(c5)OCCN6)cc4C3)c2C1 [Compound 569, 7-(3,4-dihydro-2H-pyrido[3,2-b][1,4]oxazin-7-yl)-4-(6,6-dimethyl-5,6,7,8-tetrahydroquinazolin-4-yl)-2,3,4,5-tetrahydro-1,4-benzoxazepine]
≤ 10 | Cc1nc2ccc(-c3ccc4c(c3)CN(c3ncnc5ccc(Br)cc35)CCO4)cc2[nH]1 [Compound 12, 4-(6-bromoquinazolin-4-yl)-7-(2-methyl-1H-benzimidazol-6-yl)-2,3,4,5-tetrahydro-1,4-benzoxazepine]
1000 to 2000 | Cc1nc2cc(-c3ccc4c(c3)CN(c3nc(CN(C)C)nc(C)c3C)CCO4)cnc2[nH]1 [Compound 335, 1-{4,5-dimethyl-6-[7-(2-methyl-3H-imidazo[4,5-b]pyridin-6-yl)-2,3-dihydro-1,4-benzoxazepin-4(5H)-yl]pyrimidin-2-yl}-N,N-dimethylmethanamine]
≥ 2000 | Cc1nc2ccc(-c3ccc4c(c3)CN(c3ccncn3)CCO4)cc2[nH]1 [Compound 2, 7-(2-methyl-1H-benzimidazol-6-yl)-4-pyrimidin-4-yl-2,3,4,5-tetrahydro-1,4-benzoxazepine]
50 to 250 | CCNc1nc2ccc(-c3ccc4c(c3)CN(c3nc(C)nc5cc(O)ccc35)CCO4)cc2[nH]1 [Compound 285, 4-{7-[2-(ethylamino)-1H-benzimidazol-6-yl]-2,3-dihydro-1,4-benzoxazepin-4(5H)-yl}-2-methylquinazolin-7-ol]
250 to 1000 | Cn1cnc2cc(-c3ccc4c(c3)CN(c3ccnc5ccccc35)CCO4)ccc21 [Compound 130, 7-(1-methyl-1H-benzimidazol-5-yl)-4-quinolin-4-yl-2,3,4,5-tetrahydro-1,4-benzoxazepine]
50 to 250 | CC(C)(O)CCS(=O)(=O)c1cc(-c2ccc3c(c2)CN(c2ncnc4c2CC(C)(C)CC4)CCO3)cnc1N [Compound 459, 4-({2-amino-5-[4-(6,6-dimethyl-5,6,7,8-tetrahydroquinazolin-4-yl)-2,3,4,5-tetrahydro-1,4-benzoxazepin-7-yl]pyridin-3-yl}sulfonyl)-2-methylbutan-2-ol]
≤ 10 | Cc1nc2ccc(-c3ccc4c(c3)CN(c3ncnc5ccc(Cl)cc35)CCO4)cc2[nH]1 [Compound 13, 4-(6-chloroquinazolin-4-yl)-7-(2-methyl-1H-benzimidazol-6-yl)-2,3,4,5-tetrahydro-1,4-benzoxazepine]
≤ 10 | Cc1nc2cc(-c3ccc4c(c3)CN(c3nc(C5CCCN5)nc5c3CC(C)(C)CC5)CCO4)cnc2[nH]1 (stereo not shown) [Compound 474, 4-(6,6-dimethyl-2-pyrrolidin-2-yl-5,6,7,8-tetrahydroquinazolin-4-yl)-7-(2-methyl-3H-imidazo[4,5-b]pyridin-6-yl)-2,3,4,5-tetrahydro-1,4-benzoxazepine]

molecular target: PI3Kα (Homo sapiens, UniProt P42336); assay: PI3K Biochemical Assay (ATP consumed, luciferase-luciferin chemiluminescence); settings: 1 μM ATP, 10 μM PIP2; last bin: >= 2,000 nM or not active under the conditions the assay was run; read-out: IC50 for PI3Kα in this assay
Sequence (P42336 whole entry): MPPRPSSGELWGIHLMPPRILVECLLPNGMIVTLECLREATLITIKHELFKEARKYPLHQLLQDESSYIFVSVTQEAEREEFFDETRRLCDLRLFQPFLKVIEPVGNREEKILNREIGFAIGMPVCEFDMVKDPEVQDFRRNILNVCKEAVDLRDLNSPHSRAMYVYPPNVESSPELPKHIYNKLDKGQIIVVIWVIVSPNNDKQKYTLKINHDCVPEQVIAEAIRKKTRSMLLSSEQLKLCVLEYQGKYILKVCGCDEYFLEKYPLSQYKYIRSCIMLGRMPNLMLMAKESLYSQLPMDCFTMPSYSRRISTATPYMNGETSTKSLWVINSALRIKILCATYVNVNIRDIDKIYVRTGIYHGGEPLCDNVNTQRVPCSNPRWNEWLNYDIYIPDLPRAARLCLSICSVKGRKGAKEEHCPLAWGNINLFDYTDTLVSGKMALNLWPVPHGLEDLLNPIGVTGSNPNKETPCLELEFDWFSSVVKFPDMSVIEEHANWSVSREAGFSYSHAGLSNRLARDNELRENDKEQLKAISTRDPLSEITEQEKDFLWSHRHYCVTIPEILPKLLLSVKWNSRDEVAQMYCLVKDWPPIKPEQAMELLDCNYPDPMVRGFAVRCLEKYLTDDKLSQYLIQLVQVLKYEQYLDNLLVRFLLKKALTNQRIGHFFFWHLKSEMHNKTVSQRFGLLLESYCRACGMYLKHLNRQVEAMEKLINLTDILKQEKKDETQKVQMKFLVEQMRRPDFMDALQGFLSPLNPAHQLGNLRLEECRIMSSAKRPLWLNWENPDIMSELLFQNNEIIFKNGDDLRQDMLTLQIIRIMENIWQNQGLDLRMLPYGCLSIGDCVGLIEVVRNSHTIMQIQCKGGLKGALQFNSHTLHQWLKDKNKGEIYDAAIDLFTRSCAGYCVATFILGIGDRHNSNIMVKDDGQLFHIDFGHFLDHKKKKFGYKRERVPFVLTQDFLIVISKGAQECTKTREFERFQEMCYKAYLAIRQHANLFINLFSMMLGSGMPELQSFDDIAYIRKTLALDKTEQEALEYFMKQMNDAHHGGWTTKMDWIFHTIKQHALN
Sequence (P27986 whole entry partner): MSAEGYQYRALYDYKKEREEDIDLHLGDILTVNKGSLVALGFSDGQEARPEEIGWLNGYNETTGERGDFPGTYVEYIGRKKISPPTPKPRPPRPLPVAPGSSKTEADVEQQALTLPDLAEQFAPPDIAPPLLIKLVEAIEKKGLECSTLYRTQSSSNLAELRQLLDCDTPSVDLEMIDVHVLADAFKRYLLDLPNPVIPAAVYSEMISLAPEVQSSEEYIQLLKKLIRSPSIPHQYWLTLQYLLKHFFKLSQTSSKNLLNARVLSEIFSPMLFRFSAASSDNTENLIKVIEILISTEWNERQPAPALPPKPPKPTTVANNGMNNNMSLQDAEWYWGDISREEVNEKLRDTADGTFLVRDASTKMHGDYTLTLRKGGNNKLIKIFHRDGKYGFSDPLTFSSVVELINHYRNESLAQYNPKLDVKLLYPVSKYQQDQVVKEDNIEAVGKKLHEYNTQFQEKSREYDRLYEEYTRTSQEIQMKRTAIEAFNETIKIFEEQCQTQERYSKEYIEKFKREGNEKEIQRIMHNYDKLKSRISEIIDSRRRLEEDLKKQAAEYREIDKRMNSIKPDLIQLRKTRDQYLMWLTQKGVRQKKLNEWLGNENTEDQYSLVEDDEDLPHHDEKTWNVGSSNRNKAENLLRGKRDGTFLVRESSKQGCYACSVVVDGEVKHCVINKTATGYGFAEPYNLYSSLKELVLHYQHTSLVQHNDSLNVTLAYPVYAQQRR
Description: PI3Kα activity is measured as the percent of ATP consumed following the kinase reaction using luciferase-luciferin-coupled chemiluminescence. Reactions were conducted in 384-well white, medium binding microtiter plates (Greiner). Kinase reactions were initiated by combining test compounds, ATP, substrate (PIP2), and kinase in a 20 μL volume in a buffer solution. The standard PI3Kalpha assay buffer is composed 50 mM Tris, pH 7.5, 1 mM EGTA, 10 mM MgCl2, 1 mM DTT and 0.03% CHAPS. The standard assay concentrations for enzyme, ATP, and substrate are 1.5 nM, 1 μM, and 10 μM, respectively. The reaction mixture was incubated at ambient temperature for approximately 2 h. Following the kinase reaction, a 10 μL aliquot of luciferase-luciferin mix (Promega Kinase-Glo) was added and the chemiluminescence signal measured using a Victor2 plate reader (Perkin Elmer). Total ATP consumption was limited to 40-60% and IC50 values of control compounds correlate well with literature references. Substituting PI3Kα with PI3Kβ, PI3Kγ, or PI3Kδ, the inhibitory activity of the compounds for the other isoforms of I3K were measured.

IC50 [nM] | SMILES
1000 to 2000 | Cc1nc2cc(-c3ccc4c(c3)CN(c3nc([C@@H]5CCCN5C(=O)OCc5ccccc5)nc5c3CC(C)(C)CC5)CCO4)cnc2[nH]1 [Compound 645, phenylmethyl (2S)-2-{6,6-dimethyl-4-[7-(2-methyl-3H-imidazo[4,5-b]pyridin-6-yl)-2,3-dihydro-1,4-benzoxazepin-4(5H)-yl]-5,6,7,8-tetrahydroquinazolin-2-yl}pyrrolidine-1-carboxylate]
≥ 2000 | Cc1nc2ccc(-c3ccc4c(c3)CN(c3cc(-c5ccccc5)nc(-c5ccccc5)n3)CCO4)cc2[nH]1 [Compound 7]
1000 to 2000 | Cn1cnc2cc(-c3ccc4c(c3)CN(c3ccnc5ccccc35)CCO4)ccc21 [Compound 130, 7-(1-methyl-1H-benzimidazol-5-yl)-4-quinolin-4-yl-2,3,4,5-tetrahydro-1,4-benzoxazepine]
≥ 2000 | CCN(CC)c1nc(N2CCOc3ccc(-c4ccc5nc(C)[nH]c5c4)cc3C2)c2ccccc2n1 [Compound 6]
